# In ChEMBL document CHEMBL1155434, “Discovery of a new series of 5-HT1A receptor agonists” (Bioorg Med Chem Lett, 2010):
# What was measured:
# [1] = molecular target: T1, Alpha-1A adrenergic receptor (Homo sapiens, UniProt P35348); test: Displacement of [3H]prazosin from human alpha1A adrenergic receptor expressed in CHO cells; assay type: cell-based
# T1 sequence (P35348 whole entry): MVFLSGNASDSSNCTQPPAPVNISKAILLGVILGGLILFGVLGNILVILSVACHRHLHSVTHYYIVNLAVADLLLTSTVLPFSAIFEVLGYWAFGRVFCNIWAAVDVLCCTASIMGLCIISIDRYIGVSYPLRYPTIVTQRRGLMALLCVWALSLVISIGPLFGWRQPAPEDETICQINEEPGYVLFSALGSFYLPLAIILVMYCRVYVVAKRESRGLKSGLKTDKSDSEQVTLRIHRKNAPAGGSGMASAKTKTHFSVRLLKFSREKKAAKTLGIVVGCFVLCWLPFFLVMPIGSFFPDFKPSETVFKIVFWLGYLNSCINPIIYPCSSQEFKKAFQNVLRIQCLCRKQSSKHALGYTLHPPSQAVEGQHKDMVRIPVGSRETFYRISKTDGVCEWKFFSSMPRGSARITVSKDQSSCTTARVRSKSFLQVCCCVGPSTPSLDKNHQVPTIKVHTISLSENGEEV
# [2] = molecular target: T2, 5-hydroxytryptamine receptor 1A (Homo sapiens, UniProt P08908); test: Displacement of [3H]8-OH-DPAT from human 5-HT1A receptor expressed in human HeLa cells; assay type: cell-based
# T2 sequence (P08908 whole entry): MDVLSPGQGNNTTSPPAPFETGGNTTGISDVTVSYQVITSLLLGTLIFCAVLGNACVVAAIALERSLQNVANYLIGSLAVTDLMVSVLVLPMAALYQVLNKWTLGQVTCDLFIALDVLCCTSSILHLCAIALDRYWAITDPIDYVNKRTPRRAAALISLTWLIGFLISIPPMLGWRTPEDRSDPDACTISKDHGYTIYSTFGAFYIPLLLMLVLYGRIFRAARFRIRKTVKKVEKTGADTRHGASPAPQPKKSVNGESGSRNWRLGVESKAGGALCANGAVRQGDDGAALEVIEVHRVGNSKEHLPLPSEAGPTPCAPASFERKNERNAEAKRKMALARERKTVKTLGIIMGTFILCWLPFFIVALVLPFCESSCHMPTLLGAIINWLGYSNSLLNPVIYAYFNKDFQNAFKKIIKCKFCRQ
# Homo sapiens = species on record: Homo sapiens; test: Selectivity ratio of pKi for human 5-HT1A receptor to pKi for human alpha1 adrenergic receptor
# Spleen = test: Inhibition of noradrenaline-induced contraction in rat spleen; assay type: functional
# Thoracic aorta = test: Inhibition of noradrenaline-induced contraction in rat thoracic aorta; assay type: functional
# [3] = molecular target: T3, Alpha-1B adrenergic receptor (Homo sapiens, UniProt P35368); test: Displacement of [3H]prazosin from human Alpha-1B adrenergic receptor expressed in CHO cells; assay type: cell-based
# T3 sequence (P35368 whole entry): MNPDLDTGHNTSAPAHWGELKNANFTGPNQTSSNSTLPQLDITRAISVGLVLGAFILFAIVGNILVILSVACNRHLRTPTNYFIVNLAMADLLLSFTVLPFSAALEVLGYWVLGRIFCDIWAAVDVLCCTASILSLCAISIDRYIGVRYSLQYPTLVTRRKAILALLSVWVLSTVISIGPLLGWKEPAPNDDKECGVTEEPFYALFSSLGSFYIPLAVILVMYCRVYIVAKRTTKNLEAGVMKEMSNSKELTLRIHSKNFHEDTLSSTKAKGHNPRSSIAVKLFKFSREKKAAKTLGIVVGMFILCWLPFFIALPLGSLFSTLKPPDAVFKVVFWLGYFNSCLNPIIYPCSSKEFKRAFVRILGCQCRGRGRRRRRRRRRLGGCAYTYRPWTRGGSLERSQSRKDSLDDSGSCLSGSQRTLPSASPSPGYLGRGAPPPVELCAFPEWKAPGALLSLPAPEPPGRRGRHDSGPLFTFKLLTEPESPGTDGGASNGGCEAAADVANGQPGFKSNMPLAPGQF
# [4] = molecular target: T4, 5-hydroxytryptamine receptor 1A (Homo sapiens) (UniProt P08908); test: Agonist activity at human recombinant 5HT1A receptor expressed in human HeLa cells by [35S]GTPgammaS binding assay; assay type: functional, cell-based
# T4 sequence (whole entry): T2 sequence (P08908 whole entry)
# [5] = molecular target: T5, Alpha-1D adrenergic receptor (Homo sapiens, UniProt P25100); test: Displacement of [3H]prazosin from human Alpha-1D adrenergic receptor expressed in CHO cells; assay type: cell-based
# T5 sequence (P25100 whole entry): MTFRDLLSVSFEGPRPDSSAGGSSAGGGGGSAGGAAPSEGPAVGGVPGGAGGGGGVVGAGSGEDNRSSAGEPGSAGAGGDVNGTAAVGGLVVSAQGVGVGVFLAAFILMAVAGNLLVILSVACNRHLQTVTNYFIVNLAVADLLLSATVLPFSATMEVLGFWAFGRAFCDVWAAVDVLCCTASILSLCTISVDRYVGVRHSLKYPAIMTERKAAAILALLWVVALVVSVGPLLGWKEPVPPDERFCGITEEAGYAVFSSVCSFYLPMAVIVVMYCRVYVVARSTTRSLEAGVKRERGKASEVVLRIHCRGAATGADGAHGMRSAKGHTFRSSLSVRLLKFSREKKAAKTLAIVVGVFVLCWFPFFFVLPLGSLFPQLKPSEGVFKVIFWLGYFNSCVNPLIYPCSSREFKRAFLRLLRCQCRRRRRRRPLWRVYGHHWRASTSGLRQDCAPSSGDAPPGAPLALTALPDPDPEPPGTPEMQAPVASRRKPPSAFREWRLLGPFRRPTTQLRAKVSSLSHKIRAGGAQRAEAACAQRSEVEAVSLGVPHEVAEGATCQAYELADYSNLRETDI
# [6] = molecular target: T4, 5-hydroxytryptamine receptor 1A (Homo sapiens); test: Agonist activity at human recombinant 5HT1A receptor expressed in human HeLa cells by [35S]GTPgammaS binding assay relative to serotonin; assay type: functional, cell-based
# Vas deferens = test: Inhibition of noradrenaline-induced contraction in rat prostatic vas deferens; assay type: functional
Ki [1],Ki [2],Ratio pKi (Homo sapiens),Ki [3],pD2 [4],Ki [5],Emax [6],Structure (SMILES),pKb (Spleen),pKb (Thoracic aorta),pKb (Vas deferens)
49 nM,7.94 nM,6,41.7 nM,5.92,50.1 nM,14%,COc1ccccc1CCCNCC1COC(c2ccccc2)(c2ccccc2)O1 (racemic),5.97,6.86,5.92
91.2 nM,2.63 nM,22,58.9 nM,5.97,57.5 nM,14%,COc1cccc(OCCNCC2COC(c3ccccc3)(c3ccccc3)O2)c1 (racemic),5.79,6.61,5.75
100 nM,53.7 nM,14,75.9 nM,–,182 nM,–,COc1cccc(OC)c1OCCNCC1COC(c2ccccc2)(c2ccccc2)O1 (racemic),5.89,6.93,5.73
> 1000 nM,97.7 nM,1.4,138 nM,–,> 1000 nM,–,COc1ccc(OCCNCC2COC(c3ccccc3)(c3ccccc3)O2)cc1OC (racemic),6.01,6.9,5.09
–,–,–,–,9.27,–,26%,COc1ccccc1N1CCN(CCN2C(=O)CC3(CCCC3)CC2=O)CC1 [BMY-7378],7.48,–,–
19.5 nM,0.603 nM,15,46.8 nM,7.36,–,32%,COc1ccccc1OCCNCC1COC(c2ccccc2)(c2ccccc2)O1 (racemic),7.36,8.65,7.53
20.9 nM,1.02 nM,6,100 nM,8.94,6.61 nM,76%,COc1ccccc1OCCNCC1CSC(c2ccccc2)(c2ccccc2)O1 (racemic),8.44,8.68,6.71
35.5 nM,0.129 nM,158,117 nM,7.76,20.4 nM,20%,COc1ccccc1OCCNCC1CSC(c2ccccc2)(c2ccccc2)S1 (racemic),5.87,7.5,5.8
85.1 nM,7.59 nM,11,174 nM,–,355 nM,–,COc1cccc(OCCNCC2COC(c3ccccc3)(c3ccccc3)O2)c1OC (racemic),5.85,6.64,5.86
2.09 nM,1.7 nM,1,20 nM,9.08,6.31 nM,25%,CC(C)Oc1ccccc1OCCNCC1COC(c2ccccc2)(c2ccccc2)O1 (racemic),7.25,7.59,7.25

# Continued, compound first:
Structure (SMILES),Ki [1],Ki [2],Ratio pKi (Homo sapiens),Ki [3],pD2 [4],Ki [5],Emax [6],pKb (Spleen),pKb (Thoracic aorta),pKb (Vas deferens)
c1ccc(-c2cccc(OCCNCC3COC(c4ccccc4)(c4ccccc4)O3)c2)cc1 (racemic),> 1000 nM,28.8 nM,> 35,> 1000 nM,–,> 1000 nM,–,6.21,<5,5.19
c1ccc(-c2ccccc2OCCNCC2COC(c3ccccc3)(c3ccccc3)O2)cc1 (racemic),490 nM,2.19 nM,151,> 1000 nM,7.82,331 nM,73%,5.47,6.1,<5
COc1cc(OC)cc(OCCNCC2COC(c3ccccc3)(c3ccccc3)O2)c1 (racemic),302 nM,> 1000 nM,0.2,447 nM,–,> 1000 nM,–,5.49,6.77,5.41
COc1ccc(OCCNCC2COC(c3ccccc3)(c3ccccc3)O2)cc1 (racemic),–,–,–,–,–,–,–,6.25,6.94,<5
c1ccc(OCCNCC2COC(c3ccccc3)(c3ccccc3)O2)cc1 (racemic),–,3.55 nM,3,–,8.8,–,24%,5.86,8.37,6.16
c1ccc(-c2ccc(OCCNCC3COC(c4ccccc4)(c4ccccc4)O3)cc2)cc1 (racemic),> 1000 nM,> 1000 nM,–,> 1000 nM,–,> 1000 nM,–,5.84,5.08,5.65
CCOc1ccccc1OCCNCC1COC(c2ccccc2)(c2ccccc2)O1 (racemic),6.61 nM,0.891 nM,7,53.7 nM,9.08,6.76 nM,36%,6.92,7.91,7.23
CCCN(CCC)C1CCc2cccc(O)c2C1 (stereo not drawn) [8-OH-DPAT],–,–,–,> 1000 nM,–,–,–,–,–,–
Cc1ccccc1OCCNCC1COC(c2ccccc2)(c2ccccc2)O1 (racemic),117 nM,8.32 nM,3,240 nM,–,25.7 nM,–,5.73,6.77,6.02
